≈ marks a conversion by molar mass, not a printed value. Where two headings read alike, the source gives them in different places. One block for each molecule: values may come before it.
Assays:
[1] = tested on: Pseudokirchneriella subcapitata
HCT-116 human cells = details: cited from earlier work
Daphnia magna [2] = details: cited from earlier work; for EC50 at 48 h: Daphnia magna mobility
[3] = tested on: Pseudokirchneriella subcapitata; details: cited from earlier work
Daphnia magna [4] = experiment: Daphnia magna mobility assay; details: 48 h
Experimental: Toxicity is determined using a Daphnia magna mobility assay as described (Kamaya et al., 2005). Neonates (<24 h old) from 2-3-week-old mothers are placed in a 50 ml glass beaker containing 40 ml of a test solution. A sample of solid form quercetin (10%)/PVP (90%) composition containing 2,4,6-trihydroxybenzoic acid is resuspended and introduced at increasing dilutions. All experiments for exposure and controls without chemicals are made in four replicates and performed at 21±0.3° C. under 16 h light:8 h dark photoperiod. Immobility is used as the endpoint for determining acute toxicity; the daphnids showing no movement within 15 s after gentle stirring are defined to be immobile. After 24 and 48 h, the number of immobile daphnids is recorded to determine the concentration able to achieve 50% immobilization and it is indicated as EC50.

[5] = tested on: cyclin-dependent kinases CDK1, 2, 4, 6; details: purified CDKs in vitro; cited from earlier work
[6] = human
Experimental: Potential human toxicity of 2,4,6-THBA can be related to its toxicity based on studies with Daphnia. Toxicity of various compounds in Daphnia (48 h immobilization test) correlated to toxicity in humans (determined as reference dose for human oral exposure, RfD) (Martins et al., 2007).

[7] = tested on: MDA-MB231 human breast cancer cells; experiment: Cell viability assay (CellTiter 96 AQueous One) in MDA-MB231; type: cell-based; details: MDA-MB-231, MDA-MB231, 72 h
Experimental: Toxicity of DB-DBA (2-(3,4-dihydroxybenzoyloxy)-4,6-dihydroxybenzoic acid) was assessed in 96-well plate (Thermo Fisher, Walthman, Mass.) on 1×10^3 MDA-MB231 human breast cancer cells/well. DB-DBA was diluted in to concentrations from 500 to 0 ug/ml. The plate was incubated at 37° C. for 72 h. Cell viability was measured in a CellTiter 96® AQueous One Solution Cell Proliferation Assay (Promega, Madison, Wis.), according to the manufacturer's protocol. The absorbance at 490 nm is determined spectrophotometrically and IC50 was calculated to be 75 microgram/ml.

[8] = tested on: human lymphoblastoid cell line K562; details: cited from earlier work
[9] = tested on: human lymphoblastoid TK6 cells; details: cited from earlier work
[10] = tested on: retinal pigmented epithelial cells (ARPE-19); details: ARPE-19 normal cell line; cited from earlier work
LNCaP human cell line = details: 48 h, read-out: EC50, loss of viability; cited from earlier work
OVCAR3 human cell line = details: OVCAR3, 48 h; read-out: EC50, loss of viability; cited from earlier work
mice = details: cited from earlier work
[11] = tested on: HeLa, MCF7, HepG2, A549, LNCaP human cell lines; details: cited from earlier work
[12] = cited from earlier work
[13] = Storage stability: degradation products by liquid chromatography with UV detection; type: physicochemical
Experimental: (§1) Methods to detect PCA are known in the art, such as by liquid chromatography with UV detection. For example, a solution containing PCA is subjected to liquid chromatography using gradient elution with the following conditions: stainless steel column with stationary phase end-capped octadecylsilyl silica for chromatography R; size (150×3.9) mm, particle size 5 micron. Mobile phase A: 0.1% phosphoric acid v/v; mobile phase B—methanol; column temperature: 25° C.; flow rate: 1 mL/min.; UV detection at 254 nm. Relative retention time is 1.00 for quercetin, and 0.34 for PCA (FIG. 2). Content of PCA relative to quercetin can be calculated by formula (in percentage): […]
as §1, with “detect 2,4,6-THBA” for “detect PCA”, “containing 2,4,6-THBR” for “containing PCA”, “for 2,4,6-trihydroxybenzoic acid” for “for PCA”, “of 2,4,6-trihydroxybenzoic acid” for “of PCA”
Methods to detect DB-DBA are known in the art, such as by liquid chromatography with UV detection. For example, a solution containing DB-DBA is subjected to liquid chromatography using gradient elution with the following conditions: stainless steel column with stationary phase end-capped octadecylsilyl silica for chromatography R; size (150×3.9) mm, particle size 5 microns. Mobile phase A: 0.1% phosphoric acid v/v; mobile phase B—methanol; column temperature: 25° C.; flow rate: 1 mL/min.; UV detection at 254 nm. Relative retention time is 1.00 for quercetin, and 0.77 for DB-DBA (FIG. 15). Content of DB-DBA relative to quercetin can be calculated by formula (in percentage):
For test solution content of one vial with 70 ml of 96% ethanol was transferred to a 100 ml volumetric flask, diluted to 100 ml with the same solvent and mixed. For reference solution a, 1.0 ml of test solution was placed in a 100 ml volumetric flask, diluted to 100 ml with 96% ethanol and mixed. For reference solution b, 10.0 mg working standard of quercetin for system suitability (containing isorhamnetin and kaempferol, PJSC SIC “Borshchahivskiy CPP”, Kiev, Ukraine) was dissolved in 30 ml of 96% ethanol, diluted to 50 ml with the same solvent and mixed. Chromatography was performed on a using a Dionex UltiMate 3000 HPLC system (Thermo Fisher Scientific, Inc., Waltham, Mass.) with DAD and MS detectors (3200 QTRAP System (AB Sciex LLC, Framingham, Mass.)) connected consecutively using gradient elution with the following conditions: • stainless steel column with stationary phase end-capped octadecylsilyl silica for chromatography; size (150×3.9) mm, particle size 5 microns • Mobile phase A: 1.0 mL of phosphoric acid diluted to 1000 mL with water for chromatography, mixed and degassed; • Mobile phase B: methanol gradient grade; • Column temperature: 25° C. • Flow rate: 1 mL/min.; • Detection at 254 nm; • injection volume: 10 microL.
Inject test solution and reference solution (a). Peaks of quercetin and kaempferol as references were determined by relative retention times of 1.00 and 1.11
Vials containing (group 1) a lyophilized quercetin (10%)/PVP (90%) composition in an air atmosphere and (group 2) vials containing a lyophilized quercetin (10%)/PVP (90%) composition in a nitrogen gas atmosphere were stored at room temperature. Samples were obtained for each group at the indicated time points (0, 3, 6, 9, 12, 18, 24, and 36 months) and assayed for content of protocatechuic acid by chromatography as described above. Data from 3 independent experiments are shown. […]

[14] = humans, cited from earlier work
[15] = 36 months storage at 20-25° C., air

Structure (SMILES): O=C(O)c1c(O)cc(O)cc1O [2,4,6-THBA, 2,4,6-trihydroxybenzoic acid]
toxicity relative to benzoic acid and its other derivatives [1]: 70 times
cytotoxicity compared to other salicylic acid metabolites (HCT-116 human cells): more cytotoxic
LC50 in 48 h (Daphnia magna [2]; Daphna magna immobilization test): 1.7 µg/mL (≈ 9.99 µM)
EC50 at 48 h (Daphnia magna [2]): 1.7 µg/mL (≈ 9.99 µM)
EC50, suppression of growth [3]: 0.546 µg/mL
toxicity relative to benzoic acid (Daphnia magna [4]): about 500 times
inhibitory effect on cyclin-dependent kinases CDK1, 2, 4, 6 [5]: strong inhibitory effect
RfD of 2,4,6-THBA relative to benzoic acid [6]: more than 50 times
RfD, estimated from Daphnia EC50 [6]: 0.02 mg/kg/day
toxicity of 2,4,6-THBA relative to quercetin [6]: 700 times

IC50 [7]: 75 µg/mL (≈ 245 µM)
Structure (SMILES): O=C(Oc1cc(O)cc(O)c1C(=O)O)c1ccc(O)c(O)c1 [DB-DBA, 2-(3,4-dihydroxybenzoyloxy)-4,6-dihydroxybenzoic acid]

Structure (SMILES): O=C(O)c1cc(O)c(O)c(OC(=O)c2cc(O)c(O)c(O)c2)c1 [DGA, digallic acid]
concentrations causing DNA fragmentation [8]: 200-800 microgram/ml
IC50 by MTT assay ([9]; Bhouri et al., 2012a): 8.5 microgram/ml
concentrations causing DNA fragmentation, caspase-3/8 activation and PARP cleavage ([9]; TK6): 2.5-10 microgram/ml
IC50, cytotoxicity [10]: 47 microgram/mil

Structure (SMILES): O=C(O)c1ccc(O)c(O)c1 [PCA, 3,4-dihydroxybenzoic acid]
EC50 (LNCaP human cell line): 5 µM
EC50 (OVCAR3 human cell line): 5 µM
hepatotoxicity (increase in ALT) (mice; acute, 50 mg/kg intraperitoneally): the same effect
hepatotoxicity (increase in ALT) (mice; subchronic, 0.1% in drinking water for 60 days): causes hepatotoxicity
concentration causing apoptosis (DNA fragmentation, caspase 3 activation) [11]: 5 to 8 µM

Structure (SMILES): O=C(O)c1ccccc1 [benzoic acid]
RfD / toxicity in humans [12]: 1 mg/kg/day
EC50 at 48 h (Daphnia magna [2]): 860 µg/mL (≈ 7040 µM)
EC50, suppression of growth [3]: 36 µg/mL

Structure (SMILES): O=c1c(O)c(-c2ccc(O)c(O)c2)oc2cc(O)cc(O)c12 [quercetin, 2-(3,4-dihydroxyphenyl)-3,5,7-trihydroxy-4H-chromen-4-one]
RfD / toxicity in humans [12]: more than 15 mg/kg/day
decrease of 2,4,6-THBA concentration by air substitution with nitrogen gas [13]: 7 fold
protocatechuic acid accumulation ([13]; 3 months storage at 20-25° C., air): about 0.1 % (w/w) protocatechuic acid/quercetin
2,4,6-THBA accumulation ([13]; 6 months storage at 20-25° C., air): about 0.1 % (w/w) 2,4,6-trihydroxybenzoic acid/quercetin
protocatechuic acid formation ([13]; 12 months storage, ambient conditions): above 0.4 % of quercetin content
2,4,6-THBA formation ([13]; 24 months storage, ambient conditions, air): 0.33 % of quercetin content
2,4,6-THBA accumulation [13, 15]: about 0.5 % 2,4,6-trihydroxybenzoic acid/quercetin
protocatechuic acid accumulation [13, 15]: about 0.9 % protocatechuic acid/quercetin
2,4,6-THBA concentration relative to LC50 in 48 h Daphnia immobilization test (lower) ([13]; Daphnia): more than 3 times
2,4,6-THBA concentration relative to LC50 in 48 h Daphnia immobilization test (higher) ([13]; Daphnia, 24 months): about 2 times
2,4,6-THBA concentration ([13]; air substituted with nitrogen gas): 0.5 mg/L
2,4,6-THBA formation ([13]; air substituted with nitrogen gas (FIG. 19)): 0.05%
rate of 2,4,6-THBA accumulation ([13]; room temperature, air): ~0.15 % of quercetin (w/w) per 12 months
rate of DB-DBA accumulation ([13]; room temperature, air): ~1.25 % of quercetin (w/w) per 12 months
elimination half-life ([14]; after ingestion in foods or supplements): 1 to 2 h
bioavailability of quercetin [14]: 0-50%

Reference: US11156623B2, “Methods of monitoring safety of quercetin compositions” (PUBLIC JOINT STOCK COMPANY “SCIENTIFIC INDUSTRIAL CENTRE …, priority 2018, dated 2021)
